According to patent US20250188075A1, “SUBSTITUTED HETEROCYCLIC CSNK1 INHIBITORS” (The Broad Institute, Inc., priority 2022, published 2025):
Like-named read-outs stand apart in the source and are kept apart here.

Columns and labels:
human CSNK1A1 = human CSNK1A1 (Homo sapiens (Human), UniProt P48729); assay: CSNK1A1 assay (ADP-Glo, 1 μM ATP); type: biochemical; conditions: median, read-out: CSNK1A1 Low ATP IC50 [mol/l] (median)
Description: CSNK1A1-inhibitory activity of compounds of the present invention in presence of 1 μM adenosine-tri-phosphate (ATP) was quantified employing the CSNK1A1 assay as described in the following paragraphs. In essence, the enzyme activity is measured by quantification of the adenosine-di-phosphate (ADP), which is generated as a co-product of the enzyme reaction, via the “ADP-Glo™ Kinase Assay” kit from the company Promega. This detection system works as follows: In a first step the ATP not consumed in the kinase reaction is quantitatively converted to CAMP employing an adenylate cyclase (“ADP-Glo-reagent”), then the adenylate cyclase is stopped and the ADP generated in the kinase reaction converted to ATP which generates in a luciferase-based reaction a glow-luminescence signal (“Kinase Detection Reagent”).
(§1) Recombinant fusion protein of N-terminal Glutathion-S-Transferase (GST) and full-length human CSNK1A1, expressed by baculovirus infected insect cells and purified via Glutathion affinity chromatography, was purchased from Life Technologies (product no. PV4174) and used as enzyme. As substrate for the kinase reaction the biotinylated peptide biotin-Ahx-KRRRAL-pS-VASLPGL (C-terminus in amide form) was used which can be purchased e.g. from the company Biosyntan (Berlin-Buch, Germany).
For the assay 50 nl of a 100-fold concentrated solution of the test compound in DMSO was pipetted into a white 1536-well microtiter plate (Greiner Bio-One, Frickenhausen, Germany), 2 μL of a solution of CSNK1A1 in aqueous assay buffer [50 mM HEPES pH 7.5, 10% (v/v) glycerol, 10 mM MgCl2, 50 mM NaCl, 1 mM dithiothreitol, 0.01% (w/v) bovine serum albumin, 0.01% (v/v) Triton X-100] were added and the mixture was incubated for 15 min at 22° C. to allow pre-binding of the test compounds to the enzyme before the start of the kinase reaction. Then the kinase reaction was started by the addition of 3 μL of a solution of ATP (1.67 μM=>final conc. in the 5 μL assay volume is 1 μM) and peptide substrate (50 μM=>final conc. in the 5 μL assay volume is 30 μM) in assay buffer and the resulting mixture was incubated for a reaction time of 30 min at 22° C. The concentration of CSNK1A1 was adjusted depending of the activity of the enzyme lot and was chosen appropriate to have the assay in the linear range, a typical concentrations are about 0.0375 ng/μL. The reaction was stopped by the addition of 2.5 μL of “ADP-Glo-reagent” (1:1.5 fold diluted with water) and the resulting mixture was incubated at 22° C. for 1 h to convert the ATP not consumed in the kinase reaction completely to CAMP. Subsequently 2.5 μL of the “kinase detection reagent” (1.2 fold more concentrated than recommended by the producer) were added, the resulting mixture was incubated at 22° C. for 1 h and then the luminescence measured with a suitable measurement instrument (e.g. Viewlux™ from Perkin-Elmer). The amount of emitted light was taken as a measure for the amount of ADP generated and thereby for the activity of the CSNK1A1.
(§2) The data were normalised (enzyme reaction without inhibitor=0% inhibition, all other assay components but no enzyme=100% inhibition).

human CSNK1G3 = human CSNK1G3 (Homo sapiens (Human), UniProt Q9Y6M4); assay: CSNK1G3 assay (ADP-Glo); type: biochemical; conditions: median, read-out: CSNK1G IC50 [mol/l] (median)
Description: CSNK1G3-inhibitory activity of compounds of the present invention in presence of 1 μM adenosine-tri-phosphate (ATP) was quantified employing the CSNK1G3 assay as described in the following paragraphs. In essence, the enzyme activity is measured by quantification of the adenosine-di-phosphate (ADP), which is generated as a co-product of the enzyme reaction, via the “ADP-Glo™ Kinase Assay” kit from the company Promega. This detection system works as follows: In a first step the ATP not consumed in the kinase reaction is quantitatively converted to CAMP employing an adenylate cyclase (“ADP-Glo-reagent”), then the adenylate cyclase is stopped and the ADP generated in the kinase reaction converted to ATP which generates in a luciferase-based reaction a glow-luminescence signal (“Kinase Detection Reagent”).
as §1, with “CSNK1G3,” for “CSNK1A1,”, “PV3838)” for “PV4174)”
For the assay 50 nl of a 100 fold concentrated solution of the test compound in DMSO was pipetted into a white 1536-well microtiter plate (Greiner Bio-One, Frickenhausen, Germany), 2 μL of a solution of CSNK1G3 in aqueous assay buffer [50 mM HEPES pH 7.5, 10% (v/v) glycerol, 10 mM MgCl2, 50 mM NaCl, 1 mM dithiothreitol, 0.01% (w/v) bovine serum albumin, 0.01% (v/v) Triton X-100] were added and the mixture was incubated for 15 min at 22° C. to allow pre-binding of the test compounds to the enzyme before the start of the kinase reaction. Then the kinase reaction was started by the addition of 3 μL of a solution of ATP ([…]=>final conc. in the 5 μL assay volume is 1 M) and peptide substrate (50 μM=>final conc. in the 5 μL assay volume is 30 μM) in assay buffer and the resulting mixture was incubated for a reaction time of 30 min at 22° C. The concentration of CSNK1G3 was adjusted depending of the activity of the enzyme lot and was chosen appropriate to have the assay in the linear range, a typical concentration is about 0.06 ng/μL. The reaction was stopped by the addition of 2.5 μL of “ADP-Glo-reagent” (1:1.5 fold diluted with water) and the resulting mixture was incubated at 22° C. for 1 h to convert the ATP not consumed in the kinase reaction completely to CAMP. Subsequently 2.5 μL of the “kinase detection reagent” (1.2 fold more concentrated than recommended by the producer) were added, the resulting mixture was incubated at 22° C. for 1 h and then the luminescence measured with a suitable measurement instrument (e.g. Viewlux™ from Perkin-Elmer). The amount of emitted light was taken as a measure for the amount of ADP generated and thereby for the activity of the CSNK1G3.
as §2

[1] = Solubility assay (thermodynamic solubility); type: physicochemical; conditions: thermodynamic from solid, aqueous buffer, mean
Description: Solubility of solid compound in aqueous buffer was determined by an equilibrium shake flask method. A saturated solution of drug in solvent (˜2 mg/ml solvent) was prepared and the solution was mixed for 24 h to ensure that equilibrium has been reached. The solution was centrifuged to remove the insoluble fraction and the concentration of the compound in solution was determined by HPLC-UV using a standard calibration curve (Kerns, E. H. et al., Solubility Methods in: Drug-like Properties: Concepts, Structure Design and Methods, p 276-286. Burlington, MA: Academic Press 2008).

[2] = read-out: Thermodynamic Solubility [mg/l] (mean)
[3] = read-out: Thermodynamic Solubility [μmol/L] (mean)

Sequence of human CSNK1G3 (Q9Y6M4 whole entry): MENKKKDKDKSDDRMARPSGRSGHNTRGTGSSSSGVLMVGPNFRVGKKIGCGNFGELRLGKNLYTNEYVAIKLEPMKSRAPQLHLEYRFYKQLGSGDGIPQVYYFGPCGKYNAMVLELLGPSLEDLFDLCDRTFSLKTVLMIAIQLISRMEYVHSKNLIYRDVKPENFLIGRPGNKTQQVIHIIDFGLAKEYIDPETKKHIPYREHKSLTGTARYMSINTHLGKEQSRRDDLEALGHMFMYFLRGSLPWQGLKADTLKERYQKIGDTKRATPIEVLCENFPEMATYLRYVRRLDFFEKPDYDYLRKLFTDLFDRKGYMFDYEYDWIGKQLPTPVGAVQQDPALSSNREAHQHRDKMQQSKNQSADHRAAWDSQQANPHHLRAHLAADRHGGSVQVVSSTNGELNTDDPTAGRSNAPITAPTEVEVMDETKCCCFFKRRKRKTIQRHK
Sequence of human CSNK1A1 (P48729 whole entry): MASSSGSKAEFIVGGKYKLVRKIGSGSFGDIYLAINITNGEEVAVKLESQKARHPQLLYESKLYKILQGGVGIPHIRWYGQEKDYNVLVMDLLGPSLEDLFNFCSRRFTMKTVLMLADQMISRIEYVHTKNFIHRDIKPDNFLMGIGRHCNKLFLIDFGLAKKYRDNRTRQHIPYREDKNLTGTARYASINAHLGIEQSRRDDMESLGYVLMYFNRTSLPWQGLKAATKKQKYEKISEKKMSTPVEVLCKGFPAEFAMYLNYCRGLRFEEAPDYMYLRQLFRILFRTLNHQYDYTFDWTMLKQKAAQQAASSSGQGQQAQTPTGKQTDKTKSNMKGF

Row | Structure (SMILES) | IC50 (human CSNK1A1) [nM] | IC50 (human CSNK1G3) [nM] | solubility thermodynamic at 24 h [1, 2] [mg/L] | solubility thermodynamic at 24 h [1, 3] [µmol/L]
1 | Cn1cc(CC(=O)Nc2cc(-c3[nH]c4cccnc4c3-c3ccccn3)ccn2)cn1 [Example 2, 2-(1-methylpyrazol-4-yl)-N-[4-[3-(2-pyridyl)-^1H-pyrrolo[3,2-b]pyridin-2-yl]-2-pyridyl]acetamide] | 4.21 | 102 | 85.2 | 208
2 | Cc1nc(CC(=O)Nc2cc(-c3[nH]c4cccnc4c3-c3ccccn3)ccn2)cs1 [Example 3, 2-(2-methylthiazol-4-yl)-N-[4-[3-(2-pyridyl)-^1H-pyrrolo[3,2-b]pyridin-2-yl]-2-pyridyl]acetamide] | 1.81 | 39.1 | 9.1 | 21.3
3 | O=C(Cc1cnco1)Nc1cc(-c2[nH]c3cccnc3c2-c2ccccn2)ccn1 [Example 4] | – | – | 25.2 | 63.7
4 | Cn1cnc(CC(=O)Nc2cc(-c3[nH]c4cccnc4c3-c3ccccn3)ccn2)c1 [Example 5, 2-(1-methylimidazol-4-yl)-N-[4-[3-(2-pyridyl)-^1H-pyrrolo[3,2-b]pyridin-2-yl]-2-pyridyl]acetamide] | 4.12 | 74.5 | > 409 | > 1000
5 | O=C(Cc1cnc2ccccc2n1)Nc1cc(-c2[nH]c3cccnc3c2-c2ccccn2)ccn1 [Example 6, N-[4-[3-(2-pyridyl)-^1H-pyrrolo[3,2-b]pyridin-2-yl]-2-pyridyl]-2-quinoxalin-2-yl-acetamide] | 1.1 | 7.89 | – | –
6 | Cc1nn(C)cc1CC(=O)Nc1cc(-c2[nH]c3cccnc3c2-c2ccccn2)ccn1 [Example 9, 2-(1,3-dimethylpyrazol-4-yl)-N-[4-[3-(2-pyridyl)-^1H-pyrrolo[3,2-b]pyridin-2-yl]-2-pyridyl]acetamide] | 2.61 | 51.2 | 1.3 | 3.07
7 | O=C(Cc1ccon1)Nc1cc(-c2[nH]c3cccnc3c2-c2ccccn2)ccn1 [Example 10, 2-isoxazol-3-yl-N-[4-[3-(2-pyridyl)-^1H-pyrrolo[3,2-b]pyridin-2-yl]-2-pyridyl]acetamide] | 1.97 | 33 | 15.4 | 38.9
8 | Cc1ocnc1CC(=O)Nc1cc(-c2[nH]c3cccnc3c2-c2ccccn2)ccn1 [Example 11, 2-(5-methyloxazol-4-yl)-N-[4-[3-(2-pyridyl)-^1H-pyrrolo[3,2-b]pyridin-2-yl]-2-pyridyl]acetamide] | 3.43 | 120 | 8.4 | 20.5
9 | Cc1cc(CC(=O)Nc2cc(-c3[nH]c4cccnc4c3-c3ccccn3)ccn2)on1 [Example 13, 2-(3-methylisoxazol-5-yl)-N-[4-[3-(2-pyridyl)-^1H-pyrrolo[3,2-b]pyridin-2-yl]-2-pyridyl]acetamide] | 1.69 | 28.6 | 65.9 | 161
10 | Cc1nn(C)c(C)c1CC(=O)Nc1cc(-c2[nH]c3cccnc3c2-c2ccccn2)ccn1 [Example 17, N-[4-[3-(2-pyridyl)-^1H-pyrrolo[3,2-b]pyridin-2-yl]-2-pyridyl]-2-(1,3,5-trimethylpyrazol-4-yl)acetamide] | 2.97 | 68.2 | 14.9 | 34.1

The remaining lines, values ahead:

Row | IC50 (human CSNK1A1) [nM] | IC50 (human CSNK1G3) [nM] | solubility thermodynamic at 24 h [1, 2] [mg/L] | solubility thermodynamic at 24 h [1, 3] [µmol/L] | Structure (SMILES)
11 | 5.89 | 71.7 | 9.6 | 21.6 | O=C(Cc1cnc2ccccn12)Nc1cc(-c2[nH]c3cccnc3c2-c2ccccn2)ccn1 [Example 1, 2-imidazo[1,2-a]pyridin-3-yl-N-[4-[3-(2-pyridyl)-^1H-pyrrolo[3,2-b]pyridin-2-yl]-2-pyridyl]acetamide]
12 | 1.71 | 62.6 | 9.9 | 23.3 | Cc1noc(C)c1CC(=O)Nc1cc(-c2[nH]c3cccnc3c2-c2ccccn2)ccn1 [Example 12, 2-(3,5-dimethylisoxazol-4-yl)-N-[4-[3-(2-pyridyl)-^1H-pyrrolo[3,2-b]pyridin-2-yl]-2-pyridyl]acetamide]
13 | 1.94 | 35.4 | 4.6 | 10.9 | Cc1cc(CC(=O)Nc2cc(-c3[nH]c4cccnc4c3-c3ccccn3)ccn2)n(C)n1 [Example 14]
14 | 1.07 | 10.3 | 0.8 | 1.8 | O=C(Cc1cc2ccccn2n1)Nc1cc(-c2[nH]c3cccnc3c2-c2ccccn2)ccn1 [Example 15, 2-pyrazolo[1,5-a]pyridin-2-yl-N-[4-[3-(2-pyridyl)-^1H-pyrrolo[3,2-b]pyridin-2-yl]-2-pyridyl]acetamide]
15 | 2.74 | 31.7 | 2.5 | 5.9 | Cc1cc(CC(=O)Nc2cc(-c3[nH]c4cccnc4c3-c3ccccn3)ccn2)nn1C [Example 16, 2-(1,5-dimethylpyrazol-3-yl)-N-[4-[3-(2-pyridyl)-^1H-pyrrolo[3,2-b]pyridin-2-yl]-2-pyridyl]acetamide]
